According to US11844846B2, “Styrylbenzothiazole derivatives and uses in imaging methods” (Emory University, priority 2018, dated 2023):
Entries after “also recorded” stand apart in the source; their conditions may differ.

What was measured:
α-Syn PFFs = α-Syn PFFs (Homo sapiens, UniProt P37840); test: fluorescence spectroscopy titration with α-Syn PFFs; type: binding; settings: 0.08 μM fibrils, 5 μM small molecule; result in words
Description: (§1) A fluorescent titration assay was conducted. The fluorescent emission intensities were determined with 0.08 μM of various fibrils in the presence of 5 μM of the small molecules.
(§2) To further investigate the selected compounds binding activities with α-Syn PFFs, fluorescence spectroscopy titrations were conducted to quantitatively measure compounds emission intensity when interacting with different concentrations of α-Syn PFFs. The UV spectrum of each compound was determined and selected for the optimal wavelength to conduct the fluorescence spectroscopic studies.

Aβ PFFs = biological target: T1, Aβ PFFs (Homo sapiens, UniProt P05067); test: fluorescence spectroscopy titration with Aβ PFFs; type: binding; settings: 0.08 μM fibrils, 5 μM small molecule; result in words
T1 construct: counter-screening with Tau and Aβ PFFs
T1 sequence (P05067 672-713 limits assumed): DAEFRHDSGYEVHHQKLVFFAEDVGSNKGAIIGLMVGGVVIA
Description: as §1, §2

Tau PFFs = Tau PFFs (Homo sapiens, UniProt P10636); test: fluorescence spectroscopy titration with Tau PFFs; type: binding; settings: 0.08 μM fibrils, 5 μM small molecule; result in words
Sequence of Tau PFFs (P10636 whole entry): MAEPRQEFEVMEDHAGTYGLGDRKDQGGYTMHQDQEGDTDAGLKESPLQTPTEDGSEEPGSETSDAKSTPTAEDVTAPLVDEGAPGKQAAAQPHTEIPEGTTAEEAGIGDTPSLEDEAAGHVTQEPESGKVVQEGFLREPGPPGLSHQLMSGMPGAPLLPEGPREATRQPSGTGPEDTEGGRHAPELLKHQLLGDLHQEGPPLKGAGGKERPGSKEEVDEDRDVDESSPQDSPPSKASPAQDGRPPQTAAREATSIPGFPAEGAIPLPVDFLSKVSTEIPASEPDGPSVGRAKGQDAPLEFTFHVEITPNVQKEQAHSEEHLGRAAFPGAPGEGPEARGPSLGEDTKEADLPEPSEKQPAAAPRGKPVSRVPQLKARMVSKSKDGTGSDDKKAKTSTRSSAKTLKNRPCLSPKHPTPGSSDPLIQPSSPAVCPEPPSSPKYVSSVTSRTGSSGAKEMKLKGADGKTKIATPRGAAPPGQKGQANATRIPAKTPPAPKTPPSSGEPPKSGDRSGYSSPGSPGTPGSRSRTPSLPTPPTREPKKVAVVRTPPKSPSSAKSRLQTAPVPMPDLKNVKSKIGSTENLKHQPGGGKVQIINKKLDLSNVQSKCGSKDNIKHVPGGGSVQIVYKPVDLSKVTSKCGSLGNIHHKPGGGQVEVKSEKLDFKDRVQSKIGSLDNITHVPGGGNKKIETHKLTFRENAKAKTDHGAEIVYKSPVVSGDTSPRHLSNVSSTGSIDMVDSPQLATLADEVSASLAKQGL
Description: as §1, §2

α-Syn aggregated neurons = test: neuronal α-Syn aggregation model, fluorescent microscopy; type: cell-based; settings: primary cultured neurons, AAV-α-Syn plus α-Syn PFFs
Excerpt: A series of derivatives were synthesized by including an amino group and a methyl group on benzothiazole to increase the brain permeability and fluorescent signals. The derivatives were subsequently subjected to α-Syn PFFs binding assay and counter-screening with Tau and Aβ PFFs. […] These compounds were screened on the neuronal α-Syn, Tau and Aβ aggregation model for the binding selectivity. Primary cultured neurons were infected with AAV-α-Syn, AAV-Tau FL for 7 days, then treated with α-Syn, Tau or Aβ PFFs. In a few days, the positive compounds were added in the primary neurons with indicated aggregates and analyzed under fluorescent microscopy.
Primary cultured neurons were infected with AAV-α-Syn, AAV-Tau FL or AAV-APP fragment virus for 7 days, and then treated with α-Syn, Tau or Aβ PFFs by following the described protocols (Volpicelli-Daley et al., 2014). In a few days, the positive compounds were added in the primary neurons with indicated aggregation.

[1] = biological target: T2, Lewy bodies in α-Syn A53T virus injected WT mice brain slices (Homo sapiens, UniProt P37840, A53T); test: staining of mouse brain slices with Lewy bodies; type: binding
T2 construct: from tissue; host or cells: brain (substantia nigra) of wild-type mice injected with α-Syn A53T virus
Description: (§3) To further explore whether the positive compounds selectively bind to the Lewy bodies, α-Syn A53T patient-derived mutant virus injected WT mice brain slices were employed. These mice display extensive Lewy bodies in the SN.
(§4) To further explore whether the positive compounds selectively bind to the Lewy bodies, a α-Syn A53T patient-derived mutant virus was injected into WT mice brain slices. These mice display extensive Lewy bodies in the Substantial nigra (SN). Moreover, P301S mice expressed neurofibrillary tangles (NFT). The Lewy bodies were labeled with p-α-Syn S129 antibody and the positive aggregates were also labeled with the fluorescent signals from the small molecules. […] However, it was worth noting that almost none of the tested compounds were reactive with NFT.

[2] = biological target: T3, senile plaques in 5×FAD and 3×Tg mice brain sections (Homo sapiens, UniProt P05067); test: staining of mouse brain sections with senile plaques; type: binding
T3 construct: Aβ-enriched senile plaques; from tissue; host or cells: brain sections of 5×FAD and 3×Tg mice
T3 sequence (P05067 672-713 limits assumed): as the sequence (P05067 672-713 limits assumed) above

[3] = test system: NFT in Tau P301S and 3×Tg mice brain sections; test: staining of mouse brain sections with NFT; type: binding
Description: as §3, §4

[4] = biological target: T4, LBs and LNs in DLB and MSA patient brains (Homo sapiens, UniProt P37840); test: ex vivo screening on DLB and MSA patient brain sections; type: binding
T4 construct: from tissue; host or cells: brain sections of DLB and MSA patients
Excerpt: (§5) Ex vivo screening was extended into human DLB, MSA and AD patient samples. […] Since there are detectable α-Syn aggregates in AD patient brains, these compounds colocalized with p-S129 positive α-Syn inclusions.
(§6) The ex vivo screening was extended into human DLB, MSA and AD patient samples. Neurodegenerative disease of DLB (dementia with Lewy Bodies) and MSA belongs to synucleinopathies with well-defined Lewy bodies.

[5] = test system: senile plaques or NFT in AD; test: ex vivo screening on AD patient brain sections; type: binding, human
Excerpt: as §5, §6

[6] = F0502B in vivo PK study and B/P ratios; parameters: species or system mouse; settings: mice, i.v. 5 mg/kg
Description: To ensure that F0502B meets a PET tracer's kinetic criteria with rapid penetration into the brain and swift wash out, an in vivo PK study was performed in mice with i.v. injection of 5 mg/kg of F0502B.

[7] = biological target: T5, Lewy bodies positive with anti-p-α-Syn S129 in A53T PD mouse model (Homo sapiens, UniProt P37840, A53T); test: brain section staining after in vivo administration, Lewy bodies
T5 construct: from tissue; host or cells: brain (substantia nigra) of wild-type mice injected with α-Syn A53T virus
Description: (§7) […] In 2 h, the mice were sacrificed and stained the mouse brain sections with anti-Aβ, AT8 and p-S129 and ThS, respectively.
(§8) The p-S129 positive Lewy bodies in A53T PD mice were further confirmed by anti-aggregated α-Syn 5G2 antibody.

[8] = test system: senile plaques and NFT in 5×FAD, 3×Tg and Tau P301S mice; test: brain section staining after in vivo administration, senile plaques and NFT; parameters: species or system mouse
Description: as §7, §8

α-Syn fibrils = α-Syn fibrils (Homo sapiens, UniProt P37840); test: competitive binding assay with α-Syn fibrils and [18F]F0502B; settings: fixed concentrations of α-Syn fibrils and [18F]F0502B, increasing concentrations of cold compound
[9] = biological target: T6, Lewy bodies in the brain sections from LBD patients (Homo sapiens, UniProt P37840); test: autoradiography with [18F]F0502B, human brain slices; type: binding; settings: excessive cold compound
T6 construct: from tissue; host or cells: brain sections of LBD patients
Description: [^18F]F0502B was evaluated in vitro and ex vivo binding assays to validate its specificity. α-Syn, Tau and Aβ PFFs were respectively incubated with increasing concentrations of [^18F]F0502B. The binding data were analyzed by curve fitting using nonlinear regression to obtain Kd and Bmax values. The Kd and a Bmax manifested the specific binding affinity with different fibrils. […] Autoradiography with [^18F]F0502B in human brain slices was performed. […] Together, these findings support that F0502B specifically and tightly binds to α-Syn fibrils in the Lewy bodies.

## Cc1cc2nc(/C=C/c3ccc(O)c(Br)c3)sc2cc1N(C)CCOCCF [F0502B, (E)-2-bromo-4-(2-(6-((2-(2-fluoroethoxy)ethyl)(methyl)amino)-5-methylbenzo[d]thiazol-2-yl)vinyl)phenol]
α-Syn PFFs
  binding to α-Syn PFFs by fluorescent emission intensity: specifically associated with α-Syn fibrils
Aβ PFFs
  binding to Aβ PFFs by fluorescent emission intensity: barely bound to Aβ or Tau fibrils
Tau PFFs
  binding to Tau PFFs by fluorescent emission intensity: barely bound to Aβ or Tau fibrils
α-Syn aggregated neurons
  fluorescent signal in α-Syn aggregated neurons: specifically associated with α-Syn aggregates
[1]
  staining of Lewy bodies (p-α-Syn S129 positive): specifically associated with α-Syn aggregates
[2]
  staining of senile plaques: not senile plaques or NFT from 5×FAD, 3×Tg and Tau P301S mice
[3]
  staining of NFT: not senile plaques or NFT from 5×FAD, 3×Tg and Tau P301S mice
[4]
  staining of LBs and LNs: specifically associated with α-Syn aggregates
[5]
  staining of senile plaques or NFT (Aβ, AT8 positive aggregates): not senile plaques or NFT from 5×FAD, 3×Tg and Tau P301S mice or AD patients
[6]
  C1 rate: approximately 3.92 L/h/kg
[6]; result in words
  decay in plasma: almost completely decayed at 8 h in the plasm
[6]; result in words, 5 mg/kg
  brain entry and accumulation: swiftly entered the brain and accumulated in the brain compared to the plasma; also recorded: preferentially enriched in the brain
[6]; mouse, brain, iv, 0.5 h, read-out: B/P ratio
  Kp at 0.5 h: 4.16
[6]; mouse, brain, iv, 1 h, read-out: B/P ratio
  Kp at 1 h: 13.4
[6]; mouse, brain, iv, 4 h, read-out: B/P ratio
  Kp at 4 h: 26
[6]; mouse, plasma, iv, read-out: half-life t1/2 (converted)
  half-life: 1.16 h
[7]; F0502B 5 mg/kg i.v., mice sacrificed in 2 h, ThS stain on sections
  co-localisation with anti-p-S129 stained Lewy bodies: colocalized with both F0502B and ThS
[7]; two hours after tail injection of 2 mg/kg of compound 13, A53T mice
  staining of Lewy body by brain generated F0502B: selectively stained Lewy body in A53T mice
[8]; F0502B 5 mg/kg i.v., 2 h, 5×FAD, 3×Tg, Tau P301S mice
  staining of senile plaques and NFT: does not co-stain Aβ or Tau aggregates
[8]; two hours after tail injection of 2 mg/kg of compound 13, AD mouse models
  staining of senile plaques or NFT by brain generated F0502B: not senile plaques or NFT in various AD mouse models
α-Syn fibrils
  displacement of [18F]F0502B from α-Syn fibrils: selectively stripped off by increasing concentrations of cold F0502B
[9]
  blocking of [18F]F0502B binding in brain sections: binding activities were blocked by excessive cold F0502B
